The subject of assay [1] is rat. Particulars: cited from earlier work.
The subject of assay [2] is rat. Particulars: rat model; cited from earlier work.
Assay [3] deals with rat. Particulars: cited from earlier work. This is another data set of the same source.
The target in another assay is T1, human orexin-1 receptor (Homo sapiens, UniProt O43613).
T1 construct: expressed in transfected cells; host or cells: CHO (Chinese hamster ovary) cells, kept under G418
T1 sequence (O43613 1-425): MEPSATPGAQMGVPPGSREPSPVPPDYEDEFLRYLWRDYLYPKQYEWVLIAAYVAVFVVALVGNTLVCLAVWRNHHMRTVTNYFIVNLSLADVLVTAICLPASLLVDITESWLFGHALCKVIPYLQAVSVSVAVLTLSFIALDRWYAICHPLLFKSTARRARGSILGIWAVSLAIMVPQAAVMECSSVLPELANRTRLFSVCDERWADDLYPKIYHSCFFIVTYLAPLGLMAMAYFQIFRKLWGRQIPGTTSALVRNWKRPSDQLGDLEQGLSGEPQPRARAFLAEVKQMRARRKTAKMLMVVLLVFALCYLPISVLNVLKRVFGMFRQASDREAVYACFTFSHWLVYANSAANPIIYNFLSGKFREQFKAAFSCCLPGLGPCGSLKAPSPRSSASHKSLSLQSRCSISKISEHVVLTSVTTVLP
Kind of assay: FLIPR intracellular calcium assay, orexin receptor antagonistic activity (OX1). The class given is cell-based. Particulars: CHO cells expressing human orexin-1 receptor; 3 nM orexin-A; normalized to on-plate reference; *n = geometric mean from n values. The method, boiled down:
(§1)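 CHO cells expressing human OX1 or OX2 receptor loaded with fluo-4 AM, then antagonist preincubated 10 min before 3 nM orexin-A. FLIPR peak calcium fluorescence compared with agonist-plus-vehicle response. IC50 normalized to an on-plate reference compound.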

For another assay, the target named is T2, human orexin-2 receptor (Homo sapiens, UniProt O43614).
T2 construct: expressed in transfected cells; host or cells: CHO (Chinese hamster ovary) cells, kept under G418
T2 sequence (O43614 1-444): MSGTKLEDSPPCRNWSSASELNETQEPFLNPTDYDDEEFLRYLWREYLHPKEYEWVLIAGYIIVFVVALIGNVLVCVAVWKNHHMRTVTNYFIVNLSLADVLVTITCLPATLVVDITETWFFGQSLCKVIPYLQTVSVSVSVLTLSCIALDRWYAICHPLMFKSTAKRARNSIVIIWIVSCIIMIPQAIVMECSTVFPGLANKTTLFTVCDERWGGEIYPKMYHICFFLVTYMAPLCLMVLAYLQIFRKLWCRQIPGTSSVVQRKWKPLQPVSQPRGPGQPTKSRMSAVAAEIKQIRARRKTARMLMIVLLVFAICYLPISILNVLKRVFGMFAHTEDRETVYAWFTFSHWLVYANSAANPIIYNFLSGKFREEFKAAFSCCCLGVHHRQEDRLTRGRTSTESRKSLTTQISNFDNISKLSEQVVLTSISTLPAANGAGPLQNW
Kind of assay: FLIPR intracellular calcium assay, orexin receptor antagonistic activity (OX2). The class given is cell-based. Particulars: CHO cells expressing human orexin-2 receptor; 3 nM orexin-A; normalized to on-plate reference; *n = geometric mean from n values. The method in brief:
as §1
In general terms: A change in cytosolic calcium serves as a functional read-out for many receptors and channels.

Molecules are shown by their SMILES.

`CNC(=O)[C@@H](c1ccccc1)N1CCc2cc(OC)c(OC)cc2[C@@H]1CCc1ccc(C(F)(F)F)cc1` [(2R)-2-{(1S)-6,7-dimethoxy-1-[2-(4-trifluoromethyl-phenyl)-ethyl]-3,4-dihydro-1H-isoquinolin-2-yl}-N-methyl-2-phenylacetamide]: in the assay on rat [1], the “alertness, characterized by active wake and locomotion” value is on record as “decrease alertness”; the “time spent in both REM and NREM sleep” value is “dose-dependently increase”. Further, the memory function result with rat [2] is recorded as “enhance memory function”. In addition, the “activity in a rat model of post-traumatic stress disorder” value with rat [3] is reported as “active”.
In general, IC50 refers to the concentration needed to halve the response being measured. With `CCOc1ccc(CN2C(=O)CS(=O)(=O)C2c2c(OC)cccc2OC)cc1` (stereo not drawn) [Example 290, 2-(2,6-Dimethoxy-phenyl)-3-(4-ethoxy-benzyl)-1,1-dioxo-thiazolidin-4-one], the half-inhibitory concentration (IC50) came to 0.375 µM at human orexin-1 receptor and 0.021 µM on human orexin-2 receptor.

Source of the values: patent publication US20120088759A1, “THIAZOLIDIN-4-ONE AND [1,3]-THIAZINAN-4-ONE COMPOUNDS AS OREXIN RECEPTOR ANTAGONISTS” (priority 2009, published 2012).
